The text below walks through data of patent publication US12221453B2, “Substituted pyrazolo[5′,1′:2,3]pyrimido[5,4-b][1,4]oxazines as TYK2 inhibitors” (TAKEDA PHARMACEUTICAL COMPANY LIMITED, priority 2018, dated 2025).

As usually defined, the IC50 is the concentration that gives 50% inhibition. Low values mean greater potency, high ones weaker potency.

This assay deals with IL-12 induced STAT4 phosphorylation mediated by TYK2/JAK2. Description: IL-12 induced pSTAT4 in human PBMC. In kind it is cell-based. To be noted: 1 hr compound, 1.7 ng/mL IL-12 for 30 minutes. In a few lines: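 Thawed human PBMC were pre-incubated with compound for 1 hr at 37 °C (0.1% DMSO), then stimulated with 1.7 ng/mL IL-12 for 30 minutes. Phospho-STAT4 and total STAT4 were measured in cell lysates by MSD.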

For `CNc1cc(-c2cn([C@@H]3CCOC[C@H]3F)c3ncccc23)nc2c(C(=O)N[C@H]3CC[C@@H]3OC)cnn12` [Compound I-804], the IC50 was less than 0.1 µM. As for `CNc1cc(-c2cn([C@@H]3CCC4(C3)OCCO4)c3ncccc23)nc2c(C(=O)N[C@H]3CC[C@@H]3OC)cnn12` [Compound I-806], the figure is less than 0.1 µM. Turning to `CNc1cc(-c2cn([C@H]3CCC4(C3)OCCO4)c3ncccc23)nc2c(C(=O)N[C@H]3CC[C@@H]3OC)cnn12` [Compound I-808], the IC50 was less than 0.1 µM.

`CNc1cc(-c2cn([C@H]3CCOC[C@H]3OC)c3ncccc23)nc2c(C(=O)N[C@@H]3CCC3(F)F)cnn12` [Compound I-811] came in with an IC50 of less than 0.1 µM.

`CNc1cc(-c2cnc3n([C@H]4COC[C@@H]4O)cccc2-3)nc2c(C(=O)NC3CC3)cnn12` [Compound I-816] came in with an IC50 of less than 0.1 µM. Regarding `CNc1cc(-c2cnc3n([C@@H]4COC[C@H]4O)cccc2-3)nc2c(C(=O)NC3CC3)cnn12` [Compound I-817], the IC50 was less than 0.1 µM.

Turning to `CNc1cc(-c2cnc3n([C@H]4CCOC[C@@H]4O)cccc2-3)nc2c(C(=O)NC3CC3)cnn12` [Compound I-819], the IC50 was less than 0.1 µM. As for `CNc1cc(-c2cnc3n([C@H]4COC[C@@H]4O)cccc2-3)nc2c(C(=O)N[C@@H]3C[C@@H]3F)cnn12` [Compound I-820], the figure is less than 0.1 µM; as for `CNc1cc(-c2cnc3n([C@@H]4CCOC[C@H]4O)cccc2-3)nc2c(C(=O)N[C@@H]3C[C@@H]3F)cnn12` [Compound I-824], less than 0.1 µM.

On to `CNc1cc(-c2cnc3n([C@H]4CCOC[C@@H]4O)cccc2-3)nc2c(C(=O)N[C@@H]3C[C@@H]3F)cnn12` [Compound I-825], for which the IC50 was less than 0.1 µM. As for `CNc1cc(-c2cnc3n([C@@H]4COC[C@H]4O)cccc2-3)nc2c(C(=O)NC3CC[C@@H]3F)cnn12` (stereo partly drawn) [Compound I-827], the figure is less than 0.1 µM. As for `CNc1cc(-c2cnc3n([C@H]4COC[C@@H]4O)cccc2-3)nc2c(C(=O)N[C@H]3CC[C@@H]3F)cnn12` [Compound I-828], the figure is less than 0.1 µM; as for `CNc1cc(-c2cnc3n([C@@H]4COC[C@H]4O)cccc2-3)nc2c(C(=O)N[C@H]3CC[C@@H]3F)cnn12` [Compound I-830], less than 0.1 µM; as for `CNc1cc(-c2cnc3n([C@H]4COC[C@@H]4OC)cccc2-3)nc2c(C(=O)N[C@H]3CC[C@@H]3F)cnn12` [Compound I-833], less than 0.1 µM.

`CNc1cc(-c2cnc3n([C@@H]4COC[C@H]4OC)cccc2-3)nc2c(C(=O)NC3CC[C@@H]3F)cnn12` (stereo partly drawn) [Compound I-835] showed an IC50 of less than 0.1 µM. As for `CNc1cc(-c2cnc3n([C@H]4COC[C@@H]4OC)cccc2-3)nc2c(C(=O)NC3CC[C@H]3F)cnn12` (stereo partly drawn) [Compound I-838], the figure is less than 0.1 µM. As for `CNc1cc(-c2cnc3n([C@H]4COC[C@@H]4OC)cccc2-3)nc2c(C(=O)N[C@H]3CC[C@H]3F)cnn12` [Compound I-839], the figure is less than 0.1 µM. `CNc1cc(-c2cnc3n([C@H]4COC[C@@H]4OC)cccc2-3)nc2c(C(=O)N[C@@H]3CC[C@@H]3F)cnn12` [Compound I-840]: the IC50 is less than 0.1 µM. As for `CNc1cc(-c2cnc3n([C@@H]4COC[C@H]4OC)cccc2-3)nc2c(C(=O)NC3CC[C@H]3F)cnn12` (stereo partly drawn) [Compound I-841], the figure is less than 0.1 µM; as for `CNc1cc(-c2cnc3n([C@@H]4CCOC[C@H]4O)cccc2-3)nc2c(C(=O)N[C@H]3CC[C@@H]3F)cnn12` [Compound I-848], less than 0.1 µM. As for `CNc1cc(-c2cnc3n([C@@H]4COC[C@H]4O)cccc2-3)nc2c(C(=O)N[C@@H]3CC[C@H]3OC)cnn12` [Compound I-876], the figure is less than 0.1 µM; as for `CNc1cc(-c2cnc3n([C@H]4COC[C@@H]4O)cccc2-3)nc2c(C(=O)N[C@@H]3CC[C@H]3OC)cnn12` [Compound I-878], less than 0.1 µM.

As to `CNc1cc(-c2cnc3n([C@H]4COC[C@@H]4OC)cccc2-3)nc2c(C(=O)NC3CC[C@@H]3OC)cnn12` (stereo partly drawn) [Compound I-880], the IC50 is less than 0.1 µM. On to `CNc1cc(-c2cnc3n([C@H]4COC[C@@H]4OC)cccc2-3)nc2c(C(=O)N[C@@H]3CC[C@H]3OC)cnn12` [Compound I-881], for which the IC50 was less than 0.1 µM. As for `CNc1cc(-c2cnc3n([C@@H]4COC[C@H]4OC)cccc2-3)nc2c(C(=O)NC3CC[C@@H]3OC)cnn12` (stereo partly drawn) [Compound I-883], the figure is less than 0.1 µM; as for `CNc1cc(-c2cnc3n([C@@H]4COC[C@H]4OC)cccc2-3)nc2c(C(=O)N[C@@H]3CC[C@H]3OC)cnn12` [Compound I-884], less than 0.1 µM.

`CNc1cc(-c2cnc3n([C@@H]4CCOC[C@H]4OC)cccc2-3)nc2c(C(=O)N[C@@H]3CC[C@H]3OC)cnn12` [Compound I-896] returned an IC50 of less than 0.1 µM. With `CNc1cc(-c2cnc3n([C@H]4COC[C@@H]4O)cccc2-3)nc2c(C(=O)NC3CCC3(F)F)cnn12` (stereo partly drawn) [Compound I-898], the IC50 was less than 0.1 µM.

In turn, `CNc1cc(-c2cnc3n([C@@H]4COC[C@H]4O)cccc2-3)nc2c(C(=O)NC3CCC3(F)F)cnn12` (stereo partly drawn) [Compound I-901] registered an IC50 of less than 0.1 µM. As for `CNc1cc(-c2cnc3n([C@@H]4COC[C@H]4O)cccc2-3)nc2c(C(=O)N[C@H]3CCC3(F)F)cnn12` [Compound I-902], the figure is less than 0.1 µM. As for `CNc1cc(-c2cn([C@H]3C[C@@H](COC)C3)c3ncccc23)nc2c(C(=O)NC3CC[C@H]3O)cnn12` (stereo partly drawn) [Compound I-912], the figure is less than 0.1 µM. As for `CNc1cc(-c2cn([C@H]3C[C@@H](COC)C3)c3ncccc23)nc2c(C(=O)N[C@@H]3CC[C@@H]3O)cnn12` [Compound I-914], the figure is less than 0.1 µM; as for `CNc1cc(-c2cn([C@H]3[C@@H]4COC[C@@H]43)c3ncccc23)nc2c(C(=O)N[C@H]3CC[C@@H]3O)cnn12` [Compound I-915], less than 0.1 µM. For the molecule `CNc1cc(-c2cn([C@@H]3CCOC[C@H]3F)c3ncccc23)nc2c(C(=O)N[C@H]3CC[C@H]3O)cnn12` [Compound I-918], the IC50 is less than 0.1 µM.

In turn, `CNc1cc(-c2cn(CC(=O)N(C)C)c3ncccc23)nc2c(C(=O)N[C@H]3CC[C@@H]3OC)cnn12` [Compound I-921] yielded an IC50 of less than 0.1 µM. As for `CNc1cc(-c2cn(CCOC)c3ncccc23)nc2c(C(=O)N[C@H]3CC[C@@H]3OC)cnn12` [Compound I-923], the figure is less than 0.1 µM; as for `CNc1cc(-c2cn([C@H]3C[C@@H](COC)C3)c3ncccc23)nc2c(C(=O)N[C@H]3CC[C@@H]3OC)cnn12` [Compound I-933], less than 0.1 µM; as for `CNc1cc(-c2cnc3n([C@@H]4CN(C)C[C@H]4OC)cccc2-3)nc2c(C(=O)NC3CC[C@@H]3OC)cnn12` (stereo partly drawn) [Compound I-943], less than 0.1 µM. As for `CNc1cc(-c2cnc3n([C@@H]4CN(C)C[C@H]4OC)cccc2-3)nc2c(C(=O)N[C@H]3CC[C@@H]3OC)cnn12` [Compound I-944], the figure is less than 0.1 µM; as for `CNc1cc(-c2cnc3n([C@H]4CN(C)C[C@@H]4OC)cccc2-3)nc2c(C(=O)N[C@H]3CC[C@@H]3OC)cnn12` [Compound I-947], less than 0.1 µM.

Molecule `CNc1cc(-c2cn(CC(=O)N3CCCC3)c3ncccc23)nc2c(C(=O)N[C@H]3CC[C@@H]3OC)cnn12` [Compound I-965] displayed an IC50 of less than 0.1 µM. As for `CNc1cc(-c2cnc3n(CC(=O)N4CCC4)cccc2-3)nc2c(C(=O)N[C@H]3CC[C@@H]3OC)cnn12` [Compound I-977], the figure is greater than 1 µM.
